Source: article PMC7125515 (Bioorganic & Medicinal Chemistry, 2011)
“Also recorded” adds a separate entry of the source.

Columns and labels:
herpes- and poxviruses = experiment: organism not typed; assay type: cell-based; conditions: for Selectivity index (ratio CC50:EC50), HCMV / Selectivity index (ratio CC50:EC50), HSV / Selectivity index (ratio CC50:EC50), VZV: CC50 in HEL; for Selectivity index (ratio CC50:EC50), VZV: different VZV strains; for Activity against herpes- and poxviruses (in words): DNA viruses: VACV, HSV-1, HSV-2, TK- HSV-1, VZV; for Selectivity index (ratio CC50:EC50), HCMV / Activity against herpes- and poxviruses (in words): HCMV
[1] = system: Vaccinia virus Lederle strain; assay type: cell-based
[2] = biological target: hypoxanthine-guanine-xanthine phosphoribosyltransferase (HGXPRT); conditions: read-out: Ki, HGXPRT; Plasmodium falciparum enzyme; cited from earlier work

## Nc1ccn(C[C@@H](CO)OCP(=O)(O)O)c(=O)n1.O.O [Cidofovir, reference compound]
herpes- and poxviruses
  Selectivity index (ratio CC50:EC50), HCMV: 195–282
  Selectivity index (ratio CC50:EC50), HSV: 322–363
  Selectivity index (ratio CC50:EC50), VZV: 880–2540

## CC(CP(=O)(O)O)OCCn1cnc2c(N)ncnc21 (centres unmarked) [Compound 9a, 9-[2-(1-Phosphonopropan-2-yloxy)ethyl]adenine]
[1]
  Selectivity index (ratio CC50:EC50), vaccinia virus: < 1
herpes- and poxviruses
  Selectivity index (ratio CC50:EC50), HCMV: 14–15
  Selectivity index (ratio CC50:EC50), HSV: 6–10
  Selectivity index (ratio CC50:EC50), VZV: 120–190
herpes- and poxviruses; read-out: EC50 values against different human herpesviruses (range)
  EC50: 0.07 to 2.3 µM

## Nc1ncnc2c1ncn2CCOC(COCc1ccccc1)CP(=O)(O)O (centres unmarked) [Compound 9d, 9-[2-(3-Benzyloxy-1-phosphonopropan-2-yloxy)ethyl]adenine]
herpes- and poxviruses
  Activity against herpes- and poxviruses (in words): inactive

## Nc1ncnc2c1ncn2CCOC(CO)CP(=O)(O)O (centres unmarked) [Compound 9e, 9-[2-(3-Hydroxy-1-phosphonopropan-2-yloxy)ethyl]adenine]
herpes- and poxviruses
  Activity against herpes- and poxviruses (in words): inactive; also recorded: annihilated the anti-DNA virus activity

## CC(CP(=O)(O)O)OCCn1cnc2c(N)nc(N)nc21 (centres unmarked) [Compound 14, 9-[2-(1-Phosphonopropan-2-yloxy)ethyl]diaminopurine]
herpes- and poxviruses
  Activity against herpes- and poxviruses (in words): inactive

## Cc1cn(CCOC(CO)CP(=O)(O)O)c(=O)[nH]c1=O (centres unmarked) [Compound 15e, 9-[2-(3-Hydroxy-1-phosphonopropan-2-yloxy)ethyl]thymine]
herpes- and poxviruses
  Activity against herpes- and poxviruses (in words): inactive

## Nc1nc2c(ncn2CCOCCP(=O)(O)O)c(=O)[nH]1 [PEEG]
[2]
  Ki: 0.1 µM

## O=c1[nH]cnc2c1ncn2CCOCCP(=O)(O)O [PEEHx]
[2]
  Ki: 0.3 µM
